Reference: ChEMBL document CHEMBL5518188, “Discovery of 4-amino-1,6-dihydro-7H-pyrrolo[2,3-d]pyridazin-7-one derivatives as potential receptor-interacting serine/threonine-protein kinase 1 (RIPK1) inhibitors” (Eur J Med Chem, 2024)
Calls of active or inactive are those of the source. No cut-off for these calls is given here.

Legend:
[1] = biological target: T1, Mixed lineage kinase domain-like protein (Homo sapiens, UniProt Q8NB16); assay: Binding affinity to MLKL (unknown origin) assessed as dissociation constant
T1 sequence (Q8NB16 whole entry): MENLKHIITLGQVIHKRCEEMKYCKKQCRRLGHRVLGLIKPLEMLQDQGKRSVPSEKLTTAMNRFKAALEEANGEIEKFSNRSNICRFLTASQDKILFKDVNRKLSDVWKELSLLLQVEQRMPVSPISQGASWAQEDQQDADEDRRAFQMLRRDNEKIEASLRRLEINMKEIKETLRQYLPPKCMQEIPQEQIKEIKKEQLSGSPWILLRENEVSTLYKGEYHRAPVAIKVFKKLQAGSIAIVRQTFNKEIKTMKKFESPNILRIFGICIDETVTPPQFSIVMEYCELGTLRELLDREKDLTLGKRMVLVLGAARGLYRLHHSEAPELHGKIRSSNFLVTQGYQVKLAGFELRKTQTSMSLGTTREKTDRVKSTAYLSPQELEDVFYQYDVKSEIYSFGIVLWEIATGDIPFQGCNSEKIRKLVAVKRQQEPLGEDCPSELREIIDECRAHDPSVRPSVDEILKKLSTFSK

[2] = Apparent volume of distribution in BALB/c mouse at 10 mg/kg, po; assay type: ADME, organism-based; conditions: in vivo
[3] = biological target: Vascular endothelial growth factor receptor 1 (Homo sapiens) (UniProt P17948); assay: Inhibition of FLT1 (unknown origin)
U-937 = assay: Anti-necroptosis activity against TSZ-induced human U-937 cells; assay type: functional, cell-based
[4] = biological target: T2, Receptor-interacting serine/threonine-protein kinase 1 (Homo sapiens, UniProt Q13546); assay: Binding affinity to RIPK1 (unknown origin) assessed as dissociation constant
T2 sequence (Q13546 whole entry): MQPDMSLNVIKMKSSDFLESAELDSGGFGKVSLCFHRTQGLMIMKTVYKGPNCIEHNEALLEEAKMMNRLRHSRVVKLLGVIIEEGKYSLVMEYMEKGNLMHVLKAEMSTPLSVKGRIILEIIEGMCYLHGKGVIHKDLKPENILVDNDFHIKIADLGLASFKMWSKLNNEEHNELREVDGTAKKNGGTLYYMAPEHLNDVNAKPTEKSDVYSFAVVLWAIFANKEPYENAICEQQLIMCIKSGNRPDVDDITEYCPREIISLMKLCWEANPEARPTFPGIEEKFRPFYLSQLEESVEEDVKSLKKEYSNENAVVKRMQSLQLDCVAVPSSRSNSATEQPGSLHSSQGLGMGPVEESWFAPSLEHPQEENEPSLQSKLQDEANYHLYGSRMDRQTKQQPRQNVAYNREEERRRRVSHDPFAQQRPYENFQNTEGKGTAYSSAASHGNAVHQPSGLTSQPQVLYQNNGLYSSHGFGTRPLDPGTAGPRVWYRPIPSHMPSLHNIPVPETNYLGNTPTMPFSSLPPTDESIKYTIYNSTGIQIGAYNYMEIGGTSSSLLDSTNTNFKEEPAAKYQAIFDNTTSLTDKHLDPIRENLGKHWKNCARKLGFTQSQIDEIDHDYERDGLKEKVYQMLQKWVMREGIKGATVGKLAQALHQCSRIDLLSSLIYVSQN

[5] = biological target: T3, Receptor-interacting serine/threonine-protein kinase 3 (Homo sapiens, UniProt Q9Y572); conditions: HT-29, dose 300.0 nM, time <= 6.0 hrs, TDE = time-dependent effect
Target sequence in this assay (Q9Y572 whole entry, looked up): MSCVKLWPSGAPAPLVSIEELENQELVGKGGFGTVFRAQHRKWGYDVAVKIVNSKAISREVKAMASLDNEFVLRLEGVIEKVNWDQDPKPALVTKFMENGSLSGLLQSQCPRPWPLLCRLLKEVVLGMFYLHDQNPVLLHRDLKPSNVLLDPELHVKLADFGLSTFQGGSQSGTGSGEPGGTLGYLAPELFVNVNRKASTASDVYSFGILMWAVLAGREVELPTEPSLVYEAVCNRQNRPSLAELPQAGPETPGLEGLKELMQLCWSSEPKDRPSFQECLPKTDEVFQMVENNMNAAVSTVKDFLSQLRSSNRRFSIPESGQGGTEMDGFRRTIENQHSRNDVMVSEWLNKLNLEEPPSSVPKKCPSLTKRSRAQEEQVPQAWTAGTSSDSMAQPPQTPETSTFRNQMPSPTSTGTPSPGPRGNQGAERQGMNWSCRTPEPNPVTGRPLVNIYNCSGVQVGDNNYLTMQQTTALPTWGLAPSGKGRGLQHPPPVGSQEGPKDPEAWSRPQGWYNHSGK
Description: Inhibition of RIPK3 phosphorylation in TSZ-induced human HT-29 cells at 300 nM by Western blot analysis

[6] = biological target: Vascular endothelial growth factor receptor 2 (Homo sapiens) (UniProt P35968); assay: Inhibition of KDR (unknown origin)
Sequence of Vascular endothelial growth factor receptor 2 (Homo sapiens) (P35968 whole entry): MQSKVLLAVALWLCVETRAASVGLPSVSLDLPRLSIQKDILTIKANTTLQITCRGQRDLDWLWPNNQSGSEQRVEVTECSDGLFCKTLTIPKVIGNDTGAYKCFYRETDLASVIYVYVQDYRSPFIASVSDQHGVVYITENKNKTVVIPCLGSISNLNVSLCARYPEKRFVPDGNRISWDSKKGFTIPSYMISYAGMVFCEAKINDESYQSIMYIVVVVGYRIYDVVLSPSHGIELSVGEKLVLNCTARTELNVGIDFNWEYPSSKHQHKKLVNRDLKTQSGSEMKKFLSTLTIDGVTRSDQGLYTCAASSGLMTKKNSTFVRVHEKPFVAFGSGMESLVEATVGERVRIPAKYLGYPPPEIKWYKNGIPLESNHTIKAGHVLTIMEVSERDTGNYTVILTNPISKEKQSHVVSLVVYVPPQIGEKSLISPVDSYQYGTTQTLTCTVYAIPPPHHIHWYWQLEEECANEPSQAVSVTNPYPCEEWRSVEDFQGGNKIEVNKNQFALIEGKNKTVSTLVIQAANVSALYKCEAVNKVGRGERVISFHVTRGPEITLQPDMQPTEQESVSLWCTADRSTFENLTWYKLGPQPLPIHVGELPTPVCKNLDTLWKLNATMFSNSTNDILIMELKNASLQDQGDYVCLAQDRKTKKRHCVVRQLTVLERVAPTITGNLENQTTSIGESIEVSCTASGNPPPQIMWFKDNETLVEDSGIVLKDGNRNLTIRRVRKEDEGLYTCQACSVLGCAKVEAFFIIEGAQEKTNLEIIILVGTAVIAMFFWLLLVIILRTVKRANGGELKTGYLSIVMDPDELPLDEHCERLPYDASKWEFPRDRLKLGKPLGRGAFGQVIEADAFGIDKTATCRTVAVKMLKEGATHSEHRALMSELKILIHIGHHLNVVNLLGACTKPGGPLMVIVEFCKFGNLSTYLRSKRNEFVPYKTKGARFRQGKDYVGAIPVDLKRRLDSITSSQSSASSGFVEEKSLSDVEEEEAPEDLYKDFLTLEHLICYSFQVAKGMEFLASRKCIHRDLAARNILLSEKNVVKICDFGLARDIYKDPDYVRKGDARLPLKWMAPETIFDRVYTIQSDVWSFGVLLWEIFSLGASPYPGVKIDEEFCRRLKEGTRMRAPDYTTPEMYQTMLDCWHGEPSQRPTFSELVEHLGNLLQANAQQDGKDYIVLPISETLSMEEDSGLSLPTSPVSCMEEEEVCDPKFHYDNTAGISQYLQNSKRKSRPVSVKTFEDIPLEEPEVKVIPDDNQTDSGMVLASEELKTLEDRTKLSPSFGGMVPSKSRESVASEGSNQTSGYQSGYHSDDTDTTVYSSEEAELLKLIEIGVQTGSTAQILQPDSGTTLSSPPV

[7] = biological target: Eukaryotic translation initiation factor 2-alpha kinase 1 (Homo sapiens) (UniProt Q9BQI3); assay: Inhibition of HRI (unknown origin)
Sequence of Eukaryotic translation initiation factor 2-alpha kinase 1 (Homo sapiens) (Q9BQI3 whole entry): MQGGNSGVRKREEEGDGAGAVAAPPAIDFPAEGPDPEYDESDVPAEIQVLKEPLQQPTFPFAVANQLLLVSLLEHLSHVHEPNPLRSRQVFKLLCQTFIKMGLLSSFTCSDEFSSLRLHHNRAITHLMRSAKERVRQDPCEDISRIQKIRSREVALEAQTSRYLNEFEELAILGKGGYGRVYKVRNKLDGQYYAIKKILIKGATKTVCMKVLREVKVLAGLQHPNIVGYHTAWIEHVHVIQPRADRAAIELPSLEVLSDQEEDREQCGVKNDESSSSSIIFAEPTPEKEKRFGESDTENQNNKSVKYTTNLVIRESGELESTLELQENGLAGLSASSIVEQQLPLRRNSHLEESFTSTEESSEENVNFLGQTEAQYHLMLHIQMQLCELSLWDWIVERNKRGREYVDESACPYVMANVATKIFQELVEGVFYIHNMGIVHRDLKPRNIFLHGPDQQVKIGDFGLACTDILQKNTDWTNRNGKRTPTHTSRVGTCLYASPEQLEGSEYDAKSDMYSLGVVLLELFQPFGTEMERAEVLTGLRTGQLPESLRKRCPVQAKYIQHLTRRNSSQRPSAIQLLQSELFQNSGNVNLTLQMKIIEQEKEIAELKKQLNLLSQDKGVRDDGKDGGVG

Mus musculus [8] = assay: In vivo anti-necrotptic activity in po dosed SIRS mouse model assessed as reduction in IL-6 level measured at 4 hrs; assay type: functional, organism-based; conditions: dose 2.5-10 mg/kg
[9] = biological target: T3, Receptor-interacting serine/threonine-protein kinase 3; conditions: HT-29, dose 3.0 nM, time 6.0 hrs
Target sequence in this assay (Q9Y572 whole entry, looked up): as the sequence (Q9Y572 whole entry, looked up) above

[10] = biological target: Vascular endothelial growth factor receptor 3 (Homo sapiens) (UniProt P35916); assay: Inhibition of FLT4 (unknown origin)
[11] = biological target: T4, Mixed lineage kinase domain-like protein (Homo sapiens) (UniProt Q8NB16); conditions: HT-29, dose 30.0 nM, time 6.0 hrs
T4 sequence (whole entry): T1 sequence (Q8NB16 whole entry)

L929 = assay: Anti-necroptosis activity against TSZ-induced mouse L929 cells; assay type: functional, cell-based
[12] = biological target: NT-3 growth factor receptor (Homo sapiens) (UniProt Q16288); assay: Inhibition of TRKC (unknown origin)
[13] = Tmax in BALB/c mouse at 10 mg/kg, po; assay type: ADME, organism-based; conditions: in vivo
[14] = biological target: T3, Receptor-interacting serine/threonine-protein kinase 3; assay: Binding affinity to RIPK3 (unknown origin) assessed as dissociation constant
Target sequence in this assay (Q9Y572 whole entry): as the sequence (Q9Y572 whole entry, looked up) above

Mus musculus [15] = assay: In vivo anti-necrotptic activity in SIRS mouse model assessed as protection from body temperature loss at 10 mg/kg, po measured upto 6 hrs; assay type: functional, organism-based
[16] = biological target: T2, Receptor-interacting serine/threonine-protein kinase 1; assay: Inhibition of RIPK1 (unknown origin) in presence of ATP by kinaseProfiler assay
[17] = Metabolic stability in cryopreserved human liver microsome assessed as half life; assay type: ADME; conditions: cryopreserved liver microsomes
[18] = Clearance in BALB/c mouse at 10 mg/kg, iv; assay type: ADME, organism-based; conditions: in vivo
[19] = Half life in BALB/c mouse at 10 mg/kg, iv; assay type: ADME, organism-based; conditions: in vivo
[20] = Half life in BALB/c mouse at 10 mg/kg, po; assay type: ADME, organism-based; conditions: BALB/c, in vivo
[21] = Oral bioavailability in BALB/c mouse at 10 mg/kg; assay type: ADME, organism-based; conditions: BALB/c, in vivo
HT-29 = assay: Anti-necroptosis activity against TSZ-induced human HT-29 cells; assay type: functional, cell-based
[22] = Tmax in BALB/c mouse at 10 mg/kg, iv; assay type: ADME, organism-based; conditions: in vivo
[23] = biological target: Angiopoietin-1 receptor (Homo sapiens) (UniProt Q02763); assay: Inhibition of Tie2 (unknown origin)
Sequence of Angiopoietin-1 receptor (Homo sapiens) (Q02763 whole entry): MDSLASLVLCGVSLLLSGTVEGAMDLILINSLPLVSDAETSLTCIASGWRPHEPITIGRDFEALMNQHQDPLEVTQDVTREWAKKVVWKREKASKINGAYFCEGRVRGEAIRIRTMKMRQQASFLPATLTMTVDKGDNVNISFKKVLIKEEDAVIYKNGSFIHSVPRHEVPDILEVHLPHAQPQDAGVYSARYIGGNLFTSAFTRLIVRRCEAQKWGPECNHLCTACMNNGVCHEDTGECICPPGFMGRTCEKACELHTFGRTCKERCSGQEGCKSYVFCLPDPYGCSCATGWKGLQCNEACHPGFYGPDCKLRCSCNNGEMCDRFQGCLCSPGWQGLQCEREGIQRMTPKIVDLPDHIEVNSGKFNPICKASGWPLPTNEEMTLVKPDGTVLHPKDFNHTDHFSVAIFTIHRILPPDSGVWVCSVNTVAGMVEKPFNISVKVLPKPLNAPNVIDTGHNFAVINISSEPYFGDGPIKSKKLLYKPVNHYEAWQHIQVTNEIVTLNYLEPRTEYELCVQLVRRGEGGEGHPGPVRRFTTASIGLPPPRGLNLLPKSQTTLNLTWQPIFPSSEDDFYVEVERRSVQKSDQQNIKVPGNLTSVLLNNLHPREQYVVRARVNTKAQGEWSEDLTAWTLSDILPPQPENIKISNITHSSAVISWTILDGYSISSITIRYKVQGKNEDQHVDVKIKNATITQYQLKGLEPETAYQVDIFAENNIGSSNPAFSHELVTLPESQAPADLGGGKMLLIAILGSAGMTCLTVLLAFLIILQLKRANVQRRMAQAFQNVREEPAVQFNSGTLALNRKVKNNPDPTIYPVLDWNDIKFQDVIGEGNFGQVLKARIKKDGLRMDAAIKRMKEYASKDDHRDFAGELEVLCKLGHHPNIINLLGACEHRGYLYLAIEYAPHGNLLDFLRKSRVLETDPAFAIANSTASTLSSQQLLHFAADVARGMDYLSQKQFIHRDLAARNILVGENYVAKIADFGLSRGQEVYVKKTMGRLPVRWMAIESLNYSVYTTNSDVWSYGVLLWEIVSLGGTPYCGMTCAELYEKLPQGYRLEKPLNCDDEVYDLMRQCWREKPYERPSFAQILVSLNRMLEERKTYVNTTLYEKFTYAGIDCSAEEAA

[24] = Selectivity ratio of Kd for binding affinity to RIPK1 (unknown origin) assessed as dissociation constant to Kd for binding affinity to RIPK3 (unknown origin) assessed as dissociation constant
[25] = biological target: BDNF/NT-3 growth factors receptor (Homo sapiens) (UniProt Q16620); assay: Inhibition of TRKB (unknown origin)
Sequence of BDNF/NT-3 growth factors receptor (Homo sapiens) (Q16620 32-822 limits assumed): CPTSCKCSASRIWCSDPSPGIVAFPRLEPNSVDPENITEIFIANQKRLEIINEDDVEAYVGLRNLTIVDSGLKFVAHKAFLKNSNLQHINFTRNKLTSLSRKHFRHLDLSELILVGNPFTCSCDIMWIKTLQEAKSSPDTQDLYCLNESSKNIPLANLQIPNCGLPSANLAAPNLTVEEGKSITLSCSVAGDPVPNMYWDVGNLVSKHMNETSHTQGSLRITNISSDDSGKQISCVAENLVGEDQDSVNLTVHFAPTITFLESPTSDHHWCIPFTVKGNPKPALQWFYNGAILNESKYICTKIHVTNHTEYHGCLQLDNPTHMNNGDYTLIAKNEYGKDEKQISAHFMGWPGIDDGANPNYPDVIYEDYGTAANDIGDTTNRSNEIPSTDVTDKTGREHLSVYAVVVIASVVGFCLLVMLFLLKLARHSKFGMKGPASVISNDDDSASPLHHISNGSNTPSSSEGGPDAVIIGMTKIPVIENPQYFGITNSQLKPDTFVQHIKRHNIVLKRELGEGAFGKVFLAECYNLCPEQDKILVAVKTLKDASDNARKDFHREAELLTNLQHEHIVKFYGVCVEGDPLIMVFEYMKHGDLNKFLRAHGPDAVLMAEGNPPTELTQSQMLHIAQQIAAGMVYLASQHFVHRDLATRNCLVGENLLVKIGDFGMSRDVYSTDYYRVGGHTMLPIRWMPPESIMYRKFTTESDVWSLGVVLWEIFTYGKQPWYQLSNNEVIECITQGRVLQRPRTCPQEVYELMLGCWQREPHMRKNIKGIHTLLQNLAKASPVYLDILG

[26] = biological target: Tyrosine-protein kinase Lyn (Homo sapiens) (UniProt P07948); assay: Inhibition of LYN (unknown origin)
Sequence of Tyrosine-protein kinase Lyn (Homo sapiens) (P07948 2-512 limits assumed): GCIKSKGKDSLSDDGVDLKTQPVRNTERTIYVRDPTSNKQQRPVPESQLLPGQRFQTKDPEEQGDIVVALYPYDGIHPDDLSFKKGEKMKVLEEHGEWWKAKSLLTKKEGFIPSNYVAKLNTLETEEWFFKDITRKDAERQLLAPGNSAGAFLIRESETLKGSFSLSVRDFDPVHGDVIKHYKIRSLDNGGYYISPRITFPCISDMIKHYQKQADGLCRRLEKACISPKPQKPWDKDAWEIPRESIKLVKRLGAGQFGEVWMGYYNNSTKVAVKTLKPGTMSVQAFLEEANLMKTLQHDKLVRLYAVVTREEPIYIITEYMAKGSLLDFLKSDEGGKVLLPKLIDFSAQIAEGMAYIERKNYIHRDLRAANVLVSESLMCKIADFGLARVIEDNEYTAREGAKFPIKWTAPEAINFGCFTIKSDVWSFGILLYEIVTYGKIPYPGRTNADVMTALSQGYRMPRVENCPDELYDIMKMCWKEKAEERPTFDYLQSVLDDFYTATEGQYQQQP

[27] = biological target: T5, Receptor-interacting serine/threonine-protein kinase 1 (Homo sapiens) (UniProt Q13546); conditions: HT-29, dose 300.0 nM, time <= 6.0 hrs, TDE = time-dependent effect
T5 sequence (whole entry): T2 sequence (Q13546 whole entry)
Description: Inhibition of RIPK1 phosphorylation in TSZ-induced human HT-29 cells at 300 nM by Western blot analysis

[28] = biological target: T4, Mixed lineage kinase domain-like protein (Homo sapiens); conditions: HT-29, dose 300.0 nM, time <= 6.0 hrs, TDE = time-dependent effect
Description: Inhibition of MLKL phosphorylation in TSZ-induced human HT-29 cells at 300 nM by Western blot analysis

[29] = Cmax in BALB/c mouse at 10 mg/kg, po; assay type: ADME, organism-based; conditions: in vivo
[30] = biological target: High affinity nerve growth factor receptor (Homo sapiens) (UniProt P04629); assay: Inhibition of TRKA (unknown origin)

Kd [1]: > 30000 nM
Vz [2]: 1.24 L/kg
inhibition [3]: Active
Kd [4]: 3.5 nM
inhibition [5]: Tde
inhibition [6]: Active
inhibition [7]: Active
inhibition [9]: Dose-Dependent Effect
inhibition [10]: Active
inhibition [11]: Dose-Dependent Effect
inhibition [12]: Active
Tmax [13]: 4.8 min
Kd [14]: 1700 nM
IC50 [16]: 59.8 nM
half-life [17]: 75.3 min
clearance [18]: 17.3 mL/min/kg
half-life [19]: 49.8 min
half-life [20]: 62.4 min
bioavailability [21]: 59.5%
Tmax [22]: 4.8 min
inhibition [23]: Active
Selectivity ratio [24]: 486
inhibition [25]: Active
inhibition [26]: Active
inhibition [27]: Tde
inhibition [28]: Tde
Cmax [29]: 2700 ng/mL
inhibition [30]: Active
SMILES: CC1(Cn2cc(-c3ccc4c(c3)CCN4C(=O)Cc3cccc(OC(F)(F)F)c3)c3c(N)n[nH]c(=O)c32)COC1
EC50 (U-937): 3.09 nM
Activity (Mus musculus [8]): Dose-Dependent Effect
EC50 (L929): 1.06 nM
Activity (Mus musculus [15]): Active
EC50 (HT-29): 4.58 nM
